Columns and labels:
D(1A) dopamine receptor = D(1A) dopamine receptor (Rattus norvegicus, UniProt P18901); assay: Dopamine agonist (Dopamine receptor D1) activity was measured as increase in cAMP formation relative to maximum increase in dopamine-sensitive adenylate cyclase; assay type: functional
D(2) dopamine receptor [1] = target: T1, D(2) dopamine receptor (Homo sapiens, UniProt P14416); assay: Dopamine receptor D2 agonist activity was determined for inhibition of the constrictor response to electrical stimulation in an isolated perfused rabbit ear artery preparation; assay type: functional, Oryctolagus cuniculus; conditions: target entry is the homologue from another species
Rattus norvegicus = organism: Rattus norvegicus; assay: Maximum response of adenylate cyclase to that of maximum response caused by dopamine was measured; assay type: functional; design: unit not given here
D(2) dopamine receptor [2] = target: T1, D(2) dopamine receptor; assay: Dopamine receptor D2 agonist activity was determined for inhibition of release of NE in an isolated perfused rabbit ear artery preparation

Sequence of D(1A) dopamine receptor (P18901 whole entry, the tested form may be a part): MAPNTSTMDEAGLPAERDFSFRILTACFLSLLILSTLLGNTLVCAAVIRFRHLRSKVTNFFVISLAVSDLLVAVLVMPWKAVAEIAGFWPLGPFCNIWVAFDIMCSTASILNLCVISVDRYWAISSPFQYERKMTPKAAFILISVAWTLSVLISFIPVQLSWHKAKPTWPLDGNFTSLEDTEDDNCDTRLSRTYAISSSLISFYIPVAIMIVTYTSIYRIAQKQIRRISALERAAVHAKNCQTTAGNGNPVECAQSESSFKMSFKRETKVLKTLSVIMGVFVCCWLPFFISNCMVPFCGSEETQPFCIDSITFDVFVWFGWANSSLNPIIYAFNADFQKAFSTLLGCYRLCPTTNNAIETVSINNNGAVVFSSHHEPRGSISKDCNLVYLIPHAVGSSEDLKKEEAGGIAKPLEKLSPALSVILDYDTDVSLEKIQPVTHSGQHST
T1 sequence (P14416 whole entry, the tested form may be a part): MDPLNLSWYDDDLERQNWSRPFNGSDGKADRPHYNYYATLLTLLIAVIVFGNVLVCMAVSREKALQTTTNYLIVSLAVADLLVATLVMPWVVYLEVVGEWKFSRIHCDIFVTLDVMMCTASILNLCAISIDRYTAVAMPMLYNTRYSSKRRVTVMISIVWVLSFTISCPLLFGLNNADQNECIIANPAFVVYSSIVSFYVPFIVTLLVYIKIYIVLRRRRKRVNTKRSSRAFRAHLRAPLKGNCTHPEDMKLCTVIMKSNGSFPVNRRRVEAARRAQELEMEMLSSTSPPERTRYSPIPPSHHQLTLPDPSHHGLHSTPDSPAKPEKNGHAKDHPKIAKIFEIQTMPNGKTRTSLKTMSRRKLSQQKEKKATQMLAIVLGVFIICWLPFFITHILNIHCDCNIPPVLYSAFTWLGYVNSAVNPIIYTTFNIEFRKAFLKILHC

SMILES	EC50 (D(1A) dopamine receptor) [nM]	EC50 (D(2) dopamine receptor [1]) [nM]	Max response (Rattus norvegicus)	EC50 (D(2) dopamine receptor [2]) [nM]
C=CCN1CCc2c(cc(O)c(O)c2F)C(c2ccc(O)cc2)C1.CS(=O)(=O)O (stereo unspecified)	100	137	89	–
Br.C=CCN1CCc2cc(O)c(O)cc2C(c2ccc(O)cc2)C1 (stereo unspecified)	400	253	35	–
C=CCN1CCc2c(cc(O)c(O)c2C)C(c2ccc(O)cc2)C1.Cl (stereo unspecified)	400	> 10000	69	–
C=CCN1CCc2cc(O)c(O)cc2C(c2ccccc2)C1.Cl (stereo unspecified)	–	–	45	–
C=CCN1CCc2c(cc(O)c(O)c2Br)C(c2ccc(O)cc2)C1.CS(=O)(=O)O (stereo unspecified)	50	174	78	–
C=CCN1CCc2c(cc(O)c(O)c2Cl)C(c2ccc(O)cc2)C1.CS(=O)(=O)O (stereo unspecified)	15	–	80	122

— ChEMBL document CHEMBL1123590, “Dopamine agonists related to 3-allyl-6-chloro-2,3,4,5-tetrahydro-1-(4-hydroxyphenyl)-1H-3-benzaz epi ne-7, 8-diol. 6-Position modifications” (J Med Chem, 1987)
